Results from patent US10507184B2, “Implantable Naltrexone tablets” (RUSAN PHARMA LIMITED, priority 2015, dated 2019).

Experiment: Drug solubility versus pH
Assay type: physicochemical
Conditions: pH above 7.4
Source text: Media provides sink conditions for maximum release of the drug from pharmaceutical system as well as aids in solubilization of drug for release; therefore, proper selection of media can be important. Media of different pH was used for selection of the correct media for dissolution of the naltrexone implantable tablets. The following five dissolution media were used from pH ranging from 1.2 to 7.4. The pH above 7.4 was not used, as the drug solubility is reduced at pH above 7.4.

SMILES: O=C1CC[C@@]2(O)[C@H]3Cc4ccc(O)c5c4[C@@]2(CCN3CC2CC2)[C@H]1O5 [Naltrexone, 17-(cyclopropylmethyl)-4,5α-epoxy-3,14-dihydroxymorphinan-6-one]
- drug solubility: reduced
